Results taken from patent publication US20150337010A1, “Method for treating or preventing liver related diseases” (Tunghai University, priority 2014, published 2015).

Columns and labels:
Type in all cases: in vivo, C57BL/6 male mice
[1] = LDL-cholesterol and triglyceride in blood plasma of high-fat diet fed mice; details: high-fat diet mice, 5, 15 or 25 mg/kg/day intra-peritoneal (groups 3~5), compared with group 2 (high-fat diet, saline)
Description: The experiments using the experimental mice were conducted according to the IACUC-100-12 protocol approved by Academia Sinica Institutional Animal Care and Utilization Committee (IACUC) ethics committee. All C57BL/6 male mice (6-weeks-old) were randomly divided into 5 groups that contain 8 mice in each. These mice were individually housed in a room temperature at 24±2° C. and 55±10% humidity with 12 hours of light cycle. Herein, the control mice in the group 1 were fed with standard laboratory diet and administrated 0.9% normal saline by intra-peritoneal injection. In the group 2, the mice were fed with high-fat diet to induce the fatty liver, and administrated 0.9% normal saline by intra-peritoneal injection. In the group 3, the mice were fed with high-fat diet and administrated with peptide of SEQ ID No.1 by intra-peritoneal injected with the dose of 5 mg/kg/day. In the group 4, the mice were fed with high-fat diet and administrated with peptide of SEQ ID No.1 by intra-peritoneal injected with the dose of 15 mg/kg/day. […]
The blood samples collected from the mice in each group indicated in example 1 into the microcentrifuge tubes containing heparin (10 μL, 1000 IU/ml). […] The concentration of low density lipoprotein-cholesterol (hereafter referred to as LDL) and triglyceride in the isolated blood plasma from the mice in the each group were determined by using the commercial detection kit.

PI3K = assay: Western blotting of liver protein extract: PI3K; details: high-fat diet mice, groups 3~5 (5, 15, 25 mg/kg/day i.p.), normalized with tubulin, compared with group 2
Description: (§1) The experiments using the experimental mice were conducted according to the IACUC-100-12 protocol approved by Academia Sinica Institutional Animal Care and Utilization Committee (IACUC) ethics committee. All C57BL/6 male mice (6-weeks-old) were randomly divided into 5 groups that contain 8 mice in each. These mice were individually housed in a room temperature at 24±2° C. and 55±10% humidity with 12 hours of light cycle. Herein, the control mice in the group 1 were fed with standard laboratory diet and administrated 0.9% normal saline by intra-peritoneal injection. […]
(§2) Protein concentration of extract was determined by Lowry's protein assay method, first. […]
(§3) The protein extract of the mouse liver of the each group was prepared in example 4 and then to determine the expressions of apoptosis and survive related proteins using western blotting of example 5. The expression pattern of the apoptosis and survive related proteins were shown in FIG. 7 to FIG. 12, wherein the expression of tubulin was utilized as the internal control in western blot analysis in FIG. 7, FIG. 9 and FIG. 11, and the relative expression levels of the apoptosis and survive related proteins in mouse liver were normalized with tubulin for quantification in FIG. 8, FIG. 10 and FIG. 12. […]

IGFIR = assay: Western blotting of liver protein extract: IGFIR; details: high-fat diet mice, groups 3~5 (5, 15, 25 mg/kg/day i.p.), normalized with tubulin, compared with group 2
Description: as §1, §2, §3

mouse liver = assay: Histopathological examination (H&E) of mouse liver, high-fat diet fed mice; details: high-fat diet mice, 5, 15 or 25 mg/kg/day intra-peritoneal (groups 3~5)
Description: The experiments using the experimental mice were conducted according to the IACUC-100-12 protocol approved by Academia Sinica Institutional Animal Care and Utilization Committee (IACUC) ethics committee. All C57BL/6 male mice (6-weeks-old) were randomly divided into 5 groups that contain 8 mice in each. These mice were individually housed in a room temperature at 24±2° C. and 55±10% humidity with 12 hours of light cycle. Herein, the control mice in the group 1 were fed with standard laboratory diet and administrated 0.9% normal saline by intra-peritoneal injection. In the group 2, the mice were fed with high-fat diet to induce the fatty liver, and administrated 0.9% normal saline by intra-peritoneal injection. In the group 3, the mice were fed with high-fat diet and administrated with peptide of SEQ ID No.1 by intra-peritoneal injected with the dose of 5 mg/kg/day. In the group 4, the mice were fed with high-fat diet and administrated with peptide of SEQ ID No.1 by intra-peritoneal injected with the dose of 15 mg/kg/day. In the group 5, the mice were fed with high-fat diet and administrated with peptide of SEQ ID No.1 by intra-peritoneal injected with the dose of 25 mg/kg/day. The inter-peritoneal injections were performed on these mice between third to sixth weeks of culture.
The livers were excised from the mice of the each group; soaked in formalin; dehydrated by passing consecutively through […] and then embedded in paraffin wax. The each embedded liver tissue block was cut into […] sections and deparaffinization by soaking in xylene. The histological section of the mouse liver in the each group was consecutively stained by hematoxylin and eosin (H&E) and rinsed with water. The photomicrographs of the histological section of the mouse liver in the each group obtained using Zeiss Axiophot microscope (Thornwood Co, USA.) were shown in FIG. 3 and FIG. 4.

Bax = assay: Western blotting of liver protein extract: Bax; details: high-fat diet mice, groups 3~5 (5, 15, 25 mg/kg/day i.p.), normalized with tubulin, compared with group 2
Description: as §1, §2, §3

Caspase-9 = assay: Western blotting of liver protein extract: Caspase-9; details: high-fat diet mice, groups 3~5 (5, 15, 25 mg/kg/day i.p.), normalized with tubulin, compared with group 2
Description: as §1, §2, §3

Bcl-2 = assay: Western blotting of liver protein extract: Bcl-2; details: high-fat diet mice, groups 3~5 (5, 15, 25 mg/kg/day i.p.), normalized with tubulin, compared with group 2
Description: as §1, §2, §3

Caspase-3 = assay: Western blotting of liver protein extract: Caspase-3; details: high-fat diet mice, groups 3~5 (5, 15, 25 mg/kg/day i.p.), normalized with tubulin, compared with group 2
Description: as §1, §2, §3

PPARα = assay: Western blotting of liver protein extract: PPARα; details: high-fat diet mice, groups 3~5 (5, 15, 25 mg/kg/day i.p.), normalized with tubulin, compared with group 2
Description: as §1, with “injection. In the group 2, the mice were fed with high-fat diet to induce the fatty liver, and administrated 0.9% normal saline by intra-peritoneal injection.” for “injection.”
as §2
According to method in example 5, protein extract of mouse liver in each group prepared in example 4 was subjected to determine the expression pattern and relative level of PPARα. The results were shown in FIG. 15 and FIG. 16, wherein the expression of tubulin was utilized as the internal control in FIG. 15 and the quantified expression level of PPARα in the mouse livers of the each group was calculated with normalized with quantified expression level of tubulin in FIG. 16.

AKT = assay: Western blotting of liver protein extract: AKT; details: high-fat diet mice, groups 3~5 (5, 15, 25 mg/kg/day i.p.), normalized with tubulin, compared with group 2
Description: as §1, §2, §3

IL-6 = assay: Western blotting of liver protein extract: IL-6; details: high-fat diet mice, groups 3~5 (5, 15, 25 mg/kg/day i.p.), normalized with tubulin, compared to group 2
Description: as §1, with “injection. In the group 2, the mice were fed with high-fat diet to induce the fatty liver, and administrated 0.9% normal saline by intra-peritoneal injection.” for “injection.”
as §2
(§4) According to the methods in example 4 and 5, preparing the protein extract of mouse liver in the each group and then the expression pattern of TNFα and IL-6 in mouse liver of the each group was determined by western blotting. The results were shown in FIG. 5 and FIG. 6, wherein the expression of tubulin was utilized as internal control in FIG. 5 and FIG. 6 and the relative amount of TNFα and IL-6 in mouse liver of the each group were separately quantified and normalization with the internal control.

TNFα = assay: Western blotting of liver protein extract: TNFα; details: high-fat diet mice, groups 3~5 (5, 15, 25 mg/kg/day i.p.), normalized with tubulin, compared to group 2
Description: as §1, with “injection. In the group 2, the mice were fed with high-fat diet to induce the fatty liver, and administrated 0.9% normal saline by intra-peritoneal injection.” for “injection.”
as §2, §4

[2] = tested on: matrix metalloproteinase-9; assay: Western blotting of liver protein extract: MMP-9 (hepatic fibrosis biomarker); details: high-fat diet mice, groups 3~5 (5, 15, 25 mg/kg/day i.p.), normalized with tubulin, compared with group 2
Description: as §1, with “injection. In the group 2, the mice were fed with high-fat diet to induce the fatty liver, and administrated 0.9% normal saline by intra-peritoneal injection.” for “injection.”
as §2
According to method in example 5, protein extract of mouse liver in the each group prepared in example 4 was subjected to determine the expression pattern and relative level of matrix metalloproteinase-9 (hereafter referred to as MMP 9). The results were shown in FIG. 13 and FIG. 14, wherein in FIG. 13, the expression of tubulin was utilized as the internal control in the western blotting and in FIG. 14, the quantified expression level of MMP-9 in the mouse liver of the each group was calculated with normalized with quantified expression level of tubulin.

Caspase-8 = assay: Western blotting of liver protein extract: Caspase-8; details: high-fat diet mice, groups 3~5 (5, 15, 25 mg/kg/day i.p.), normalized with tubulin, compared with group 2
Description: as §1, §2, §3

cytochrome c = assay: Western blotting of liver protein extract: cytochrome c; details: high-fat diet mice, groups 3~5 (5, 15, 25 mg/kg/day i.p.), normalized with tubulin, compared with group 2
Description: as §1, §2, §3

peptide of SEQ ID No.1: isolated peptide containing an amino acid sequence of SEQ ID No.1; obtainable by extraction, hydrolyzation or chemical synthesis (VHVV)
concentration of LDL in blood plasma [1]: obviously decreased | concentration of triglyceride in blood plasma [1]: obviously decreased | expression level of survival related protein PI3K in mouse liver (PI3K): obviously higher | expression level of survival related protein IGFIR (pIGF-IR) in mouse liver (IGFIR): obviously higher | fat accumulation in the mouse liver (H&E) (mouse liver; compared with group 2): obviously decreased | giant oil drops in the mouse liver (H&E) (mouse liver; group 2 filled with giant oil drops): never was observed the giant oil drop | arrangement of hepatocytes in the mouse liver (H&E) (mouse liver; group 2 loosely arranged): tightly arranged hepatocytes | expression level of Bax (pro-apoptotic factor) in mouse liver (Bax): obviously suppressed | expression level of Caspase-9 (pro-apoptotic factor) in mouse liver (Caspase-9): obviously suppressed | expression level of Bcl-2 in mouse liver (Bcl-2): elevated | expression level of Caspase-3 (pro-apoptotic factor) in mouse liver (Caspase-3): obviously suppressed | expression level of PPARα in mouse liver (PPARα): obviously increased | expression level of survival related protein AKT (pAKT) in mouse liver (AKT): obviously higher | expression level of IL-6 in mouse liver (IL-6): obviously reduced | expression level of TNFα in mouse liver (TNFα): obviously reduced | expression level of MMP-9 in mouse liver [2]: obviously suppressed | expression level of Caspase-8 (pro-apoptotic factor) in mouse liver (Caspase-8): obviously suppressed | expression level of cytochrome c (pro-apoptotic factor) in mouse liver (cytochrome c): obviously suppressed
